Measurements reported in patent US12460244B2, “Inhibitors of RNA-guided nuclease activity and uses thereof” (THE BROAD INSTITUTE, INC., priority 2018, dated 2025).
Entries after “also recorded” stand apart in the source; their conditions may differ.

Experiments:
[1] = target: T1, SpCas9 (Streptococcus pyogenes serotype M1, UniProt Q99ZW2); conditions: FIG. 16C
[2] = target: T1, SpCas9; assay: cell-based
[3] = tested on: CRISPR mediated gene tagging with HiBiT; assay: CRISPR mediated gene tagging with HiBiT in cells (bioluminescence); format: cell-based; conditions: various concentrations; FIG. 17B
[4] = target: T1, SpCas9; assay: Broad spectrum CRISPR inhibition, SpCas9 (FIG. 22A); format: biochemical, S. pyogenes
[5] = target: FnCpf1 (Francisella tularensis subsp. novicida, UniProt A0Q7Q2); format: biochemical; conditions: FIG. 22B
Sequence of FnCpf1 (A0Q7Q2 whole entry, looked up): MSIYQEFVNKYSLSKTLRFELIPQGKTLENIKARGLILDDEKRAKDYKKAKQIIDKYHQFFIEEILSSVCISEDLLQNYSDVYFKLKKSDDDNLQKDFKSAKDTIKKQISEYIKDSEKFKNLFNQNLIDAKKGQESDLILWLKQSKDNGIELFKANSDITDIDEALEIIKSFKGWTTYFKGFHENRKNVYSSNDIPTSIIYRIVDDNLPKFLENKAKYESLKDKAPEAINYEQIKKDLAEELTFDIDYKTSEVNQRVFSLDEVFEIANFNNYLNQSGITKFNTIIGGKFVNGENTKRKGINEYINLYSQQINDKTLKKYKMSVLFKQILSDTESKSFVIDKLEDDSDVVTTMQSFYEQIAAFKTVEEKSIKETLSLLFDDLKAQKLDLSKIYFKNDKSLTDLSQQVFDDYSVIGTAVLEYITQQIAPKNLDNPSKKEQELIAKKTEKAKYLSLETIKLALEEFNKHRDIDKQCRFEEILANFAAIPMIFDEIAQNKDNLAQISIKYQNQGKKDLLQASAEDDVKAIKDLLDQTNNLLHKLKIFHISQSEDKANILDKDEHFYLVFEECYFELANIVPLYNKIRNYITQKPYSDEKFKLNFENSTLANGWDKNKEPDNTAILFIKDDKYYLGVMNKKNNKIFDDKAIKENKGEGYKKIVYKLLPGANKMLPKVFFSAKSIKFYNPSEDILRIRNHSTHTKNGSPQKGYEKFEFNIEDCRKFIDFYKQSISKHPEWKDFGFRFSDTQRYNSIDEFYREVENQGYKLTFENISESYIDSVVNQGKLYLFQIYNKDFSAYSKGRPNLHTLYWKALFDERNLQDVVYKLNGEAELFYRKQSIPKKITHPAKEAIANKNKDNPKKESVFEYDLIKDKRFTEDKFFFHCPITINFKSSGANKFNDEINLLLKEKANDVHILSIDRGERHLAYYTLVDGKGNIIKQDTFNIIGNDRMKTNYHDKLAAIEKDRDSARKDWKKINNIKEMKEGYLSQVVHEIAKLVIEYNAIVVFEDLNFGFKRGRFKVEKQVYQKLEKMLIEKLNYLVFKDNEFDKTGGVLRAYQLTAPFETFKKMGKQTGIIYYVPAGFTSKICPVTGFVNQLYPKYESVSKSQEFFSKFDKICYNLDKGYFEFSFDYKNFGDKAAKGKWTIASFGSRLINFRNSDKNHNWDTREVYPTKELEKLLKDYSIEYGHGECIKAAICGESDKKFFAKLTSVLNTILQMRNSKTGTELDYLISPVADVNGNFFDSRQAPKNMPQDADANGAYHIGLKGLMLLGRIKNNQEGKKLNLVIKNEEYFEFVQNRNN

T1 sequence (Q99ZW2 whole entry): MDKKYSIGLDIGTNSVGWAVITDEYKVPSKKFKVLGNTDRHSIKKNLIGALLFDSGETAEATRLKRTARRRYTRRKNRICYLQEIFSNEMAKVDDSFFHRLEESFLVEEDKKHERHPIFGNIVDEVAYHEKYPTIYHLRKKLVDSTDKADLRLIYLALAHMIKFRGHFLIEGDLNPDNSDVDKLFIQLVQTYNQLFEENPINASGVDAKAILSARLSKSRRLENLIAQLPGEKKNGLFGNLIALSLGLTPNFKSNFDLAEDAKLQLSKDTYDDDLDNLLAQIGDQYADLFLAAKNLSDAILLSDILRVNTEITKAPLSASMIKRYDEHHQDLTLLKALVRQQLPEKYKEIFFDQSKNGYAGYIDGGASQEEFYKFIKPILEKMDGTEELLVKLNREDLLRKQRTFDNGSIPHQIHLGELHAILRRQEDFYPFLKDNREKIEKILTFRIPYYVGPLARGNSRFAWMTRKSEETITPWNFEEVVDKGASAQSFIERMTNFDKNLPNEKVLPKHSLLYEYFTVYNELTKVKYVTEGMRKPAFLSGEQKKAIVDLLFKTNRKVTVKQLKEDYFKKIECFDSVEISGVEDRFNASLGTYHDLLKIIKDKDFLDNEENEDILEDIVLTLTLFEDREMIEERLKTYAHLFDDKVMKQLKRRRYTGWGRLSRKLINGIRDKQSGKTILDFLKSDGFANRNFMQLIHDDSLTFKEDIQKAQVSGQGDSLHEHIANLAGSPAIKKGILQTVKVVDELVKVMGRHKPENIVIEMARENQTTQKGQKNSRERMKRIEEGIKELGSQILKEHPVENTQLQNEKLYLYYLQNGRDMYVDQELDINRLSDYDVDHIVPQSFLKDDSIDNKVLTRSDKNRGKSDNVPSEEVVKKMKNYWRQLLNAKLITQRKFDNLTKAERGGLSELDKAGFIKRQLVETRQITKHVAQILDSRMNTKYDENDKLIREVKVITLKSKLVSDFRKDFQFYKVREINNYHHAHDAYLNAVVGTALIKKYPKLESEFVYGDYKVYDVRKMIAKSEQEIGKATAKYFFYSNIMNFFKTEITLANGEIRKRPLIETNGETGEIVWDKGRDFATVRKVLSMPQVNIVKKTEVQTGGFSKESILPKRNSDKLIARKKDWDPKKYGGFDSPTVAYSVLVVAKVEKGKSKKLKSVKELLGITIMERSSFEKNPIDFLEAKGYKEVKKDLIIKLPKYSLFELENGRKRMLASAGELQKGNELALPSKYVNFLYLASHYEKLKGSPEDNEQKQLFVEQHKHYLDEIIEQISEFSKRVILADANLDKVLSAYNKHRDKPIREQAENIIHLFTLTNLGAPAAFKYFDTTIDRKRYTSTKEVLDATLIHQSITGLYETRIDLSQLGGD

## N#C[C@@H]1N[C@H](CO)[C@H]1c1ccc(-c2ccccc2F)cc1 [BRD7608]
[1]
  eGFP fluorescence in the presence of eGFP-targeted SpCas9 activity: eGFP fluorescence is maintained
[2]
  IC50: 3.9 µM
[3]
  Inhibition of CRISPR mediated gene tagging with HiBiT (bioluminescence): inhibited in a dose-dependent manner
[4]
  Inhibition of SpCas9: broad-spectrum CRISPR inhibitors; also recorded: similarly inhibit
[5]
  Inhibition of FnCpf1: broad-spectrum CRISPR inhibitors; also recorded: similarly inhibit

## N#C[C@H]1N[C@@H](CO)[C@@H]1c1ccc(C#CC2CCCC2)cc1 [BRD9822]
[1]
  eGFP fluorescence in the presence of eGFP-targeted SpCas9 activity: eGFP fluorescence is maintained
[2]
  IC50: 5.5 µM
[3]
  Inhibition of CRISPR mediated gene tagging with HiBiT (bioluminescence): inhibited in a dose-dependent manner
[4]
  Inhibition of SpCas9: broad-spectrum CRISPR inhibitors; also recorded: similarly inhibit
[5]
  Inhibition of FnCpf1: broad-spectrum CRISPR inhibitors; also recorded: similarly inhibit
